Patent US20240261224A1, “FORMULATION OF A PAN-JAK INHIBITOR” (KINASET THERAPEUTICS, INC., priority 2022, published 2024)
Several values for one entry are separate records, joined by “and”; a condition that tells them apart may be missing. Equal values may be shown once.

Columns and labels:
JAK1 = JAK1 (Homo sapiens, UniProt P23458); conditions: cited from earlier work
[1] = test system: fractional exhaled nitric oxide (FeNO); test: Phase 1 Part 2: FeNO reduction in ICS-naïve mild asthmatics; assay type: in vivo, human; conditions: for Mean placebo-corrected FeNO reduction: mild asthma ICS naïve
Experimental: A status summary of the phase 1 clinical trial recruitment is shown below in Table 18. Capsules filled with blend 2a were used to achieve a 0.6 mg target dose of Compound I (0.2 mg capsules×3). Capsules filled with blend 4 were used to achieve 2.0 mg, 4.0 mg, 6.0 mg, 8.0 mg, and 12.0 mg target doses of Compound I (2.0 mg capsule×1; 4.0 mg capsule×1; 2.0 mg capsules×3; 4.0 mg capsules×2; and 4.0 mg capsules×3, respectively). Twice daily dosing (BID) was achieved by repeating the preceding regime. For example, an 8.0 mg BID dosing regime is achieved by administering two doses of 4.0 mg capsules×2.
Particular FeNO reduction data from FIG. 5 is highlighted below in Table 19. For comparison, it is established that FeNO reductions greater than 20% are clinically significant (Am. J. Respir. Crit. Care Med. 2011, 184, 602).
Day 10 pharmacokinetic parameters for Parts 2 and 3 of Phase I are summarized below in Table 28. Part 2 involved the administration of 4 different dose regimens, to subjects with mild asthma naïve to ICS therapy, over a 10-day period. Each separate cohort comprised 6 subjects receiving active treatment with 2 receiving matching placebo. Blood samples were collected to enable the measurement of Compound I concentrations in plasma. The resultant data was used to determine the PK parameters at Day 10 representing the Day on which the final dose was received.

serum eosinophil count = test: Phase 1 Part 3 serum (whole blood) differential eosinophil count; assay type: in vivo, human; conditions: 4 mg BID
Experimental: Whole blood hematology samples were collected prior to dosing in all patients at Day 1 (baseline) and on Day 10. Parameters including whole blood absolute and percent differential eosinophil count were determined and the resultant data was used to determine change from baseline, mean change from baseline, and mean placebo-corrected change from baseline (Compound I vs placebo).

[2] = APSD, MMAD, FPM and FPF determination (NGI, 90 L/min); assay type: physicochemical; conditions: for Fine particle mass (≤5 μm): in µg (unit assumed)
Experimental: Cup coating agent was prepared by mixing 150 mL of a mixture of Brij® 35, ethanol, and glycerol with 850 ml of ethanol.
The cup coating agent was prepared, and the NGI was assembled. The collection cups were then coated with cup coating agent and then proceeded to dry. A PALL® A/E 76 mm filter was placed into the back-up filter and attached to the NGI. Approximately 15 mL of diluent was added into the pre-separator insert. The flow rate was set to 90 L/min and the capsule was pierced. One dose was discharged into the NGI by initiating the time-controlled solenoid valve for 2.70 seconds. Sample diluent was added (10 mL for 0.2 mg and 2.0 mg doses and 20 mL for 4.0 mg doses), and the collection cups were agitated on the NGI Gentle Rocker for 10 minutes. The induction port was added 40 mL of sample diluent and was shaken for 1 minute. The pre-separator was added 50 mL of sample diluent and was shaken for 1 minute. The back-up filter was transferred to a crystallizing dish with 20 mL of sample diluent and was then sonicated for 5 minutes. The capsule from each determination was then transferred to a 20 mL volumetric flask and sample diluent was added. The suspension was then shaken and sonicated until fully dissolved. The resulting solution equilibrated under ambient conditions and was then made up to volume. Each Monodose RS01 was placed into an individual plastic bag and 20 mL of recovery solution was added. The bag was shaken by hand for 1 minute and filtered prior to HPLC analysis.

[3] = Day 10, Mean of active subjects (n = 6)
[4] = Day 10, individual active subjects 13026, 13027, 13038, 13073, 13095, 13097 (c1-c6)
[5] = 2.0 mg capsule, 12 months 30/65
[6] = 2.0 mg capsule, 18 months 30/65
[7] = 2.0 mg capsule, 24 months 30/65
[8] = 4.0 mg capsule, 12 months 30/65

Sequence of JAK1 (P23458 whole entry): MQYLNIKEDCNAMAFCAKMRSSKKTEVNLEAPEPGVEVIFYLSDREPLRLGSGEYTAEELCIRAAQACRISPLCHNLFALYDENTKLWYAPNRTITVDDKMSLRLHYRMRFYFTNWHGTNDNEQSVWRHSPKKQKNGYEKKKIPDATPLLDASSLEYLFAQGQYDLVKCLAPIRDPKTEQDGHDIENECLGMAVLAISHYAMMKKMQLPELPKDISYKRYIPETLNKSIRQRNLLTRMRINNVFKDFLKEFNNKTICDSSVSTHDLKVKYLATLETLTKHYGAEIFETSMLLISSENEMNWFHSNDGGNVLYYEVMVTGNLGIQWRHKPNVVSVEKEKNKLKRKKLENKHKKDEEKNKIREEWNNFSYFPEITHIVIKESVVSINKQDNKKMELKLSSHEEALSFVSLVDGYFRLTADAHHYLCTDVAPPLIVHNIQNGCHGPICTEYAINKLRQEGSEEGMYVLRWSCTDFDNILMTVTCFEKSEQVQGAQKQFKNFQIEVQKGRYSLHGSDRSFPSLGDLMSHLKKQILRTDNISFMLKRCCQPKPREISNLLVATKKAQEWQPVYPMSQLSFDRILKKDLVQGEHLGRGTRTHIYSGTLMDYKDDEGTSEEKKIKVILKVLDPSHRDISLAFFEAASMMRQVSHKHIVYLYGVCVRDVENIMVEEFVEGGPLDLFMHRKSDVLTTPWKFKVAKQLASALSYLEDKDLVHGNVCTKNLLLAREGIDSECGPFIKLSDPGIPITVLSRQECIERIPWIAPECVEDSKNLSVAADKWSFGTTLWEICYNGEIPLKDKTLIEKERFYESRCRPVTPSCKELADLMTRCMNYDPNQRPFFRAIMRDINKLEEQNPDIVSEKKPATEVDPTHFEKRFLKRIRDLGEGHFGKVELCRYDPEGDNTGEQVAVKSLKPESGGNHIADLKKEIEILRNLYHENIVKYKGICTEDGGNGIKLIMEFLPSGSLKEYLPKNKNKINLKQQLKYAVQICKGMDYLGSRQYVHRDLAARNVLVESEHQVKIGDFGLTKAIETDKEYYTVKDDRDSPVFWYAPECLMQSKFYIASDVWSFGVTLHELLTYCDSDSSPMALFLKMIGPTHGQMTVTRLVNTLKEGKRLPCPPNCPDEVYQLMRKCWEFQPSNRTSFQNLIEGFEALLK

## Cn1c(=O)n([C@H]2CCCN(C(=O)CC#N)C2)c2nc(-c3cnn4ccccc34)ccc21 [Compound I, (S)-3-(3-(1-methyl-2-oxo-5-(pyrazolo[1,5-a]pyridine-3-yl)-1H-imidazo[4,5-b]pyridine-3(2H)-yl)piperidin-1-yl)-3-oxopropanenitrile]
JAK1
  Inhibition of JAK1: potent inhibitor
[1]; 0.6 mg QD
  Pharmacological activity of dose regimen (FeNO): minimally active dose
[1]; 0.6 mg QD (n = 6)
  % subjects reporting Day 10 FeNO value <25 ppb: 16%
[1]; 0.6 mg QD (n = 6), Day 10 + 3 hrs
  Mean placebo-corrected % FeNO reduction from day 1 pre-dose in ICS naïve mild asthmatics: −5.4%
[1]; 0.6 mg QD (n = 6), Day 10 + 6 hrs
  Mean placebo-corrected % FeNO reduction from day 1 pre-dose in ICS naïve mild asthmatics: −6.7%
[1]; 0.6 mg QD, 3 capsules per dose
  Mean placebo-corrected FeNO reduction: −7%
[1]; 0.6 mg QD, Day 1 pre-dose to Day 10
  Mean placebo-corrected FeNO changes: < 20%
[1]; 2.0 mg QD (n = 6)
  % subjects reporting Day 10 FeNO value <25 ppb: 16%
[1]; 2.0 mg QD (n = 6), Day 10 + 3 hrs
  Mean placebo-corrected % FeNO reduction from day 1 pre-dose in ICS naïve mild asthmatics: −26.6%
[1]; 2.0 mg QD (n = 6), Day 10 + 6 hrs
  Mean placebo-corrected % FeNO reduction from day 1 pre-dose in ICS naïve mild asthmatics: −24.0%
[1]; 2.0 mg QD, 1 capsule per dose
  Mean placebo-corrected FeNO reduction: −24%
[1]; 4.0 mg BID (n = 6)
  % subjects reporting Day 10 FeNO value <25 ppb: 67%
[1]; 4.0 mg BID (n = 6), Day 10 + 3 hrs
  Mean placebo-corrected % FeNO reduction from day 1 pre-dose in ICS naïve mild asthmatics: −29.1%
[1]; 4.0 mg BID (n = 6), Day 10 + 6 hrs
  Mean placebo-corrected % FeNO reduction from day 1 pre-dose in ICS naïve mild asthmatics: −30.6%
[1]; 4.0 mg BID, 1 capsule per dose
  Mean placebo-corrected FeNO reduction: −26%
[1]; 4.0 mg BID, Day 10 + 3 hours
  Mean placebo-corrected % FeNO reduction from Day 1 pre-dose: 29.1%
[1]; 4.0 mg BID, Day 10 + 6 hours
  Mean placebo-corrected % FeNO reduction from Day 1 pre-dose: 30.6%
[1]; 8.0 mg BID (n = 6)
  % subjects reporting Day 10 FeNO value <25 ppb: 50%
[1]; 8.0 mg BID (n = 6), Day 10 + 3 hrs
  Mean placebo-corrected % FeNO reduction from day 1 pre-dose in ICS naïve mild asthmatics: −29.1%
[1]; 8.0 mg BID (n = 6), Day 10 + 6 hrs
  Mean placebo-corrected % FeNO reduction from day 1 pre-dose in ICS naïve mild asthmatics: −25.9%
[1]; dose regimens from 2 mg QD to 8 mg BID
  Pharmacological activity of dose regimens (FeNO): pharmacologically active
Serum eosinophil count; Day 10 (5/6)
  Active subjects with improvements (decreases) from baseline in whole blood eosinophil count: 83%
Serum eosinophil count; [3]
  Serum absolute differential eosinophil count, % Change from screening: −29%
  Serum absolute differential eosinophil count, Change from Day 1 pre-dose: −0.14 cells 10^9/L
Serum eosinophil count; Day 10, active (n = 6) vs placebo (n = 2)
  Serum absolute differential eosinophil count, Mean placebo-corrected change: −0.11 cells 10^9/L
Serum eosinophil count; [4]
  Serum absolute differential eosinophil count, % Change from screening: −45% and +54% and −43% and −4% and −32% and −74%
  Serum absolute differential eosinophil count, Change from Day 1 pre-dose: −0.30 cells 10^9/L and 0.13 cells 10^9/L and −0.13 cells 10^9/L and −0.03 cells 10^9/L and −0.14 cells 10^9/L and −0.34 cells 10^9/L
Serum eosinophil count; Mean of active subjects (n = 6)
  Serum absolute differential eosinophil count, Day 10 level: 0.34 cells 10^9/L
Serum eosinophil count; individual active subjects 13026, 13027, 13038, 13073, 13095, 13097 (c1-c6)
  Serum absolute differential eosinophil count, Day 10 level: 0.36 cells 10^9/L and 0.37 cells 10^9/L and 0.17 cells 10^9/L and 0.74 cells 10^9/L and 0.30 cells 10^9/L and 0.12 cells 10^9/L
[2]; 2.0 mg and 4.0 mg formulations aerosolized, Tables 11 and 12
  MMAD: 1.8-2.0 μm
[2]; 2.0 mg and 4.0 mg formulations, Tables 11 and 12, up to 24 months
  FPF: 73-78%
[2]; 2.0 mg capsule, 1 month 30/65
  FPF % (FPM/Impactor dose): 75.4%
  MMAD: 2.0 μm
  Fine particle mass (≤5 μm): 1143.6
[2]; 2.0 mg capsule, 1 month 40/75
  FPF % (FPM/Impactor dose): 75.9%
  MMAD: 1.9 μm
  Fine particle mass (≤5 μm): 1046.6
[2]; 2.0 mg capsule, 3 months 30/65
  FPF % (FPM/Impactor dose): 77.2%
  MMAD: 1.9 μm
  Fine particle mass (≤5 μm): 1096.5
[2]; 2.0 mg capsule, 3 months 40/75
  FPF % (FPM/Impactor dose): 77.2%
  MMAD: 1.8 μm
  Fine particle mass (≤5 μm): 1090.9
[2]; 2.0 mg capsule, 6 months 30/65
  FPF % (FPM/Impactor dose): 74.9%
  MMAD: 1.9 μm
  Fine particle mass (≤5 μm): 1074.3
[2]; 2.0 mg capsule, 6 months 40/75
  FPF % (FPM/Impactor dose): 74.7%
  MMAD: 1.9 μm
  Fine particle mass (≤5 μm): 1069.6
[2]; 2.0 mg capsule, 9 months 30/65
  FPF % (FPM/Impactor dose): 76.6%
  MMAD: 1.9 μm
  Fine particle mass (≤5 μm): 1075.9
[2]; [5]
  FPF % (FPM/Impactor dose): 77.3%
  MMAD: 1.9 μm
  Fine particle mass (≤5 μm): 1098.4
[2]; [6]
  FPF % (FPM/Impactor dose): 77.0%
  MMAD: 1.9 μm
  Fine particle mass (≤5 μm): 1162.7
[2]; [7]
  FPF % (FPM/Impactor dose): 78.0%
  MMAD: 2.0 μm
  Fine particle mass (≤5 μm): 1083.1
[2]; 2.0 mg capsule, Release
  FPF % (FPM/Impactor dose): 73.5%
  MMAD: 2.0 μm
  Fine particle mass (≤5 μm): 1006.7
[2]; 4.0 mg capsule, 1 month 30/65
  FPF % (FPM/Impactor dose): 75.1%
  MMAD: 1.8 μm
  Fine particle mass (≤5 μm): 2181.6
[2]; 4.0 mg capsule, 1 month 40/75
  FPF % (FPM/Impactor dose): 73.6%
  MMAD: 1.9 μm
  Fine particle mass (≤5 μm): 2130.4
[2]; 4.0 mg capsule, 3 months 30/65
  FPF % (FPM/Impactor dose): 75.4%
  MMAD: 1.8 μm
  Fine particle mass (≤5 μm): 2167.8
[2]; 4.0 mg capsule, 3 months 40/75
  FPF % (FPM/Impactor dose): 72.9%
  MMAD: 1.9 μm
  Fine particle mass (≤5 μm): 2059.2
[2]; 4.0 mg capsule, 6 months 30/65
  FPF % (FPM/Impactor dose): 73.6%
  MMAD: 1.9 μm
  Fine particle mass (≤5 μm): 2098.3
[2]; 4.0 mg capsule, 6 months 40/75
  FPF % (FPM/Impactor dose): 74%
  MMAD: 1.8 μm
  Fine particle mass (≤5 μm): 2090
[2]; 4.0 mg capsule, 9 months 30/65
  FPF % (FPM/Impactor dose): 74%
  MMAD: 1.8 μm
  Fine particle mass (≤5 μm): 2116.2
[2]; [8]
  FPF % (FPM/Impactor dose): 76.5%
  MMAD: 1.9 μm
  Fine particle mass (≤5 μm): 2182.2
[2]; 4.0 mg capsule, 18 months
  FPF % (FPM/Impactor dose): 75.4%
  MMAD: 1.9 μm
  Fine particle mass (≤5 μm): 2254.8
[2]; 4.0 mg capsule, 24 months
  FPF % (FPM/Impactor dose): 76.7%
  MMAD: 1.9 μm
  Fine particle mass (≤5 μm): 2201.8
[2]; 4.0 mg capsule, Release
  FPF % (FPM/Impactor dose): 75.3%
  MMAD: 1.9 μm
  Fine particle mass (≤5 μm): 2157.0
